Assay results from PMC9097415, “Nanomolar EP4 receptor potency and expression of eicosanoid-related enzymes in normal appearing colonic mucosa from patients with colorectal neoplasia” (BMC Gastroenterology, 2022).
Several values for one entry are separate records, joined by “and”; a condition that tells them apart may be missing. Equal entries are not always repeated.

Assays:
EP1 receptor = target: T1, EP1 receptor (Homo sapiens, UniProt P34995); test: EP1 agonist stimulation of colonic mucosa biopsies in MUAS-chambers, SCC; type: cell-based; conditions: biopsies exposed to the selective EP1 agonist
T1 construct: Four biopsies were mounted and oxygenated in MUAS-chambers after extraction; from tissue; host or cells: human colonic mucosa biopsies mounted in MUAS (modified Ussing) chambers
T1 sequence (P34995 1-402): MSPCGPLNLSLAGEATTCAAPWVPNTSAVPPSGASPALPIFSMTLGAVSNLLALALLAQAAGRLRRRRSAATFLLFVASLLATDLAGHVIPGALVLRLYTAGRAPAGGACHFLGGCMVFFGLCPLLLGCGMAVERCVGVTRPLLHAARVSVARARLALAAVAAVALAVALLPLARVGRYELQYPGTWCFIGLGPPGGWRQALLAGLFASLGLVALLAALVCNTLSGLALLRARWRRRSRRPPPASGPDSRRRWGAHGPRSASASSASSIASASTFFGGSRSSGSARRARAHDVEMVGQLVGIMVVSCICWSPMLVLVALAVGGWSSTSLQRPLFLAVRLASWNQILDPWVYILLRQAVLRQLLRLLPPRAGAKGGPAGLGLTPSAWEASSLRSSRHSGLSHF
Experimental: (§1) Four biopsies were mounted and oxygenated in MUAS-chambers after extraction as described by Larsen et al. generally within 45 min after extraction. Biopsies were bathed on both sides with 10 mL Ringer, supplemented with 5.5 mM D-glucose. Temperature was maintained at 37.2 °C by water jackets. An automated voltage-clamp device continuously recorded SCC and slope conductance.
(§2) Experiments began after a stable basal SCC was obtained within 10 min after proper mounting. All experiments were initiated by addition of amiloride (20 µM, mucosal side) to inhibit electrogenic sodium absorption mediated through epithelial sodium channels and followed by theophylline (400 µM, serosal side) to inhibit phosphodiesterase-dependent cyclic adenosine monophosphate (cAMP) degradation. Finally, to eliminate endogenous prostaglandin synthesis, indomethacin (13 µM, serosal side) was added and incubated for 40 min.
Biopsies from 47 patients were treated with PGE2 and selective EP receptor agonists to investigate receptor function, Table 1. A single agonist was added in increasing concentrations (1 nM to 5 µM, serosal side) to each MUAS-chamber. […]
To assess agonists and receptors, data obtained from dose–response curves were analyzed with either a single-Michaelis–Menten model (srm) or a two-Michaelis–Menten receptor/site model (trm) using Sigmaplot 13.0 for Windows, Systat Software Inc. (USA/Canada). […]

EP4 receptor [1] = target: T2, EP4 receptor (Homo sapiens, UniProt P35408); test: EP4 antagonist GW-X added before PGE2 dose-response in MUAS-chambers, agonist-based Cheng-Prusoff analysis; type: cell-based
T2 construct: Four biopsies were mounted and oxygenated in MUAS-chambers after extraction; from tissue; host or cells: human colonic mucosa biopsies mounted in MUAS (modified Ussing) chambers
Experimental: as §1, §2
Biopsies from 26 patients were treated with selective EP receptor antagonists, Table 1. A combination of 3 antagonists was added to each MUAS chamber (serosal side), to single out and investigate the remaining non-inhibited EP receptor subtype. After antagonist incubation (45 min), cumulative doses of PGE2 were added (3 nM to 1 µM, serosal side). The EP4 receptor was also examined with another selective antagonist, GW627368X (GW-X, 5 µM, serosal side).
(§3) To assess agonists and receptors, data obtained from dose–response curves were analyzed with either a single-Michaelis–Menten model (srm) or a two-Michaelis–Menten receptor/site model (trm) using Sigmaplot 13.0 for Windows, Systat Software Inc. (USA/Canada). Outcome data were maximum SCC responses (RMax) and EC50 of these analyses.
From 2 agonist dose-response curves, one determined in the absence of a competitive antagonist, the other in its presence at only a single concentration, it is possible to calculate the antagonist apparent half inhibition dissociation constant at equilibrium, […]. […]

EP receptors (EP1-4) = test: PGE2 stimulation of colonic mucosa biopsies in MUAS-chambers, short circuit current (SCC); type: cell-based, human
Experimental: as §1, §2
(§4) Biopsies from 47 patients were treated with PGE2 and selective EP receptor agonists to investigate receptor function, Table 1. A single agonist was added in increasing concentrations (1 nM to 5 µM, serosal side) to each MUAS-chamber. The final agonist concentration step was followed by the addition of 5 µM PGE2, to elicit a maximal PGE2-induced response.
as §3

EP4 receptor [2] = target: T2, EP4 receptor; test: EP4 agonist stimulation of colonic mucosa biopsies in MUAS-chambers, SCC; type: cell-based
Experimental: as §1, §2, §4, §3

T2 sequence (P35408 whole entry): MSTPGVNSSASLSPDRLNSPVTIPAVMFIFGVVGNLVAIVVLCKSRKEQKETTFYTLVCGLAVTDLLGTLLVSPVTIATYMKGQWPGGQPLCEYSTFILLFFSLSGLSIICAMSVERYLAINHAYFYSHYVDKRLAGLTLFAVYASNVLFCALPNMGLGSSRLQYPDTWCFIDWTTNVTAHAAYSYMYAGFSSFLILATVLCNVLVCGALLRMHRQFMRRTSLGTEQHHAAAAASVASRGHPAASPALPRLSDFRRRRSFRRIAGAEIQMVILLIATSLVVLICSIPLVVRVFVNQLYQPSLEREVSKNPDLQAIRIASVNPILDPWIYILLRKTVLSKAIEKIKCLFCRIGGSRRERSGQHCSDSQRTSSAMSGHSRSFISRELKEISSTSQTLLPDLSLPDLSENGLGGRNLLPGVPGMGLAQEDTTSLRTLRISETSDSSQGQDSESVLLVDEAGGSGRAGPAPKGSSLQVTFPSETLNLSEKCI

Molecule: CCCC[C@H](C)C[C@H](O)/C=C/[C@H]1[C@H](O)CC(=O)[C@@H]1CC(=O)C1CCC(C(=O)O)CC1 (some centres unmarked) [EP1 agonist, ONO-DI004]
- Biopsies showing no increase in SCC (EP1 receptor): 4 out of 22

Molecule: CCOc1c2c(c(OCC)c3ccccc13)C(=O)N(c1ccc(CC(=O)NS(=O)(=O)c3ccccc3)cc1)C2 [GW-X, GW627368X]
- Mean EC50 ratio (agonist EC50 with / without antagonist) (EP4 receptor [1]; GW-X 5 µM, 4 protocols): approximately 25
- IC50 (EP4 receptor [1]; against PGE2 (and TCS 2510), GW-X 5 µM, from EC50 ratios, 14 individual experiments): ~210 nM and 210 nM
- Type of inhibition of PGE2 (EP4 receptor [1]; low nanomolar PGE2 concentration range, rightward shift of the dose-response curve): competitive inhibition

Molecule: CCCCC[C@H](O)/C=C/[C@H]1[C@H](O)CC(=O)[C@@H]1C/C=C\CCCC(=O)O [PGE2, Prostaglandin E2]
- PGE2 concentration at which SCC increased (as low as) (EP receptors (EP1-4); both patient groups (CRN and CTRL), serosal side): ≤ 1 nM
- EP4 receptor potency of PGE2 (EP receptors (EP1-4); normal appearing colonic mucosa): low nanomolar range
- RMax rank among agonists (EP receptors (EP1-4); srm and trm): highest
- Average separation factor between EC50s of high and low affinity receptors (EP receptors (EP1-4); two receptor model (trm)): 64

Molecule: TCS 2510 [EP4 agonist]
- RMax as share of the PGE2 response (EP4 receptor [2]; CRN patients): ~75%
- RMax as share of the PGE2 response (EP4 receptor [2]; CTRL patients): approximately 50%
- Sensitivity / potency for SCC increase (EP4 receptor [2]; similar sensitivity to PGE2): high potency in the low nanomolar range
- EC50 in CRN patients compared to CTRLs (EP4 receptor [2]; single receptor model (srm)): higher
- Average separation factor between EC50s of high and low affinity receptors (EP4 receptor [2]; two receptor model (trm)): 15
- RMax of low affinity receptors in CRN patients (EP4 receptor [2]; two receptor model (trm)): significantly increased
